# pIC50: −log10 of the molar value.
# Tested on: PC3 cells
# Assay: NAMPT Cell Proliferation Assay
# Type: cell-based
# Details: Homo sapiens, PC-3, 120 h, 5 days incubation, cell viability by Cell Titer Glo
# How it was run: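 Five-day CellTiter-Glo viability readout in PC3 cells grown in RPMI/10% heat-inactivated FBS. Compounds added after overnight attachment as a 10-fold dilution series, […]. Percent inhibition fitted to sigmoidal dose-response to derive IC50.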
row,Compound,pIC50
1,"O=C(N[C@H]1CCN(c2cccnn2)C1)c1ccc(C2CCN(C(=O)c3ccccc3F)CC2)s1 [Example 763, 5-[1-(2-fluorobenzoyl)piperidin-4-yl]-N-[(3S)-1-(pyridazin-3-yl)pyrrolidin-3-yl]thiophene-2-carboxamide]",8.08
2,"O=C(N[C@H]1CCN(c2cccnn2)C1)c1ccc(C2CCN(C(=O)c3ccccc3)CC2)s1 [Example 764, 5-(1-benzoylpiperidin-4-yl)-N-[(3S)-1-(pyridazin-3-yl)pyrrolidin-3-yl]thiophene-2-carboxamide]",7.66
3,"O=C(N[C@H]1CCN(c2cccnn2)C1)c1ccc(C2CCN(C(=O)C3CCOC3)CC2)s1 (stereo partly drawn) [Example 765, N-[(3S)-1-(pyridazin-3-yl)pyrrolidin-3-yl]-5-[1-(tetrahydrofuran-3-ylcarbonyl)piperidin-4-yl]thiophene-2-carboxamide]",5.99
4,"O=C(N[C@H]1CCN(c2cccnn2)C1)c1ccc(C2CCN(C(=O)[C@H]3CCCO3)CC2)s1 [Example 766, N-[(3S)-1-(pyridazin-3-yl)pyrrolidin-3-yl]-5-{1-[(2R)-tetrahydrofuran-2-ylcarbonyl]piperidin-4-yl}thiophene-2-carboxamide]",6.10
5,"CN1CCC(CC(=O)N2CCC(c3ccc(C(=O)N[C@H]4CCN(c5cccnn5)C4)s3)CC2)CC1 [Example 767, 5-{1-[(1-methylpiperidin-4-yl)acetyl]piperidin-4-yl}-N-[(3S)-1-(pyridazin-3-yl)pyrrolidin-3-yl]thiophene-2-carboxamide]",5.89
6,"O=C(N[C@H]1CCN(c2cccnn2)C1)c1ccc(C2CCN(C(=O)c3cscn3)CC2)s1 [Example 768, N-[(3S)-1-(pyridazin-3-yl)pyrrolidin-3-yl]-5-[1-(1,3-thiazol-4-ylcarbonyl)piperidin-4-yl]thiophene-2-carboxamide]",6.95
7,"CC(C)Cn1cc(-c2ccc(NC(=O)[C@H]3CCN(c4cccnn4)C3)cc2)cn1 [Example 769, (3S)-N-{4-[1-(2-methylpropyl)-1H-pyrazol-4-yl]phenyl}-1-(pyridazin-3-yl)pyrrolidine-3-carboxamide]",7.73
8,"CC(C)n1cc(-c2ccc(NC(=O)[C@H]3CCN(c4cccnn4)C3)cc2)cn1 [Example 770, (3S)-N-{4-[1-(propan-2-yl)-1H-pyrazol-4-yl]phenyl}-1-(pyridazin-3-yl)pyrrolidine-3-carboxamide]",6.86
9,"O=C(Nc1ccc(-c2cnn(CC3CC3)c2)cc1)[C@H]1CCN(c2cccnn2)C1 [Example 771, (3S)-N-{4-[1-(cyclopropylmethyl)-1H-pyrazol-4-yl]phenyl}-1-(pyridazin-3-yl)pyrrolidine-3-carboxamide]",7.16
10,"O=C(Nc1ccc(-c2cnn(CC3CCCCO3)c2)cc1)[C@H]1CCN(c2cccnn2)C1 (stereo partly drawn) [Example 772, (3S)-1-(pyridazin-3-yl)-N-{4-[1-(tetrahydro-2H-pyran-2-ylmethyl)-1H-pyrazol-4-yl]phenyl}pyrrolidine-3-carboxamide]",7.20
11,"CC(C)(C)n1cc(-c2ccc(NC(=O)[C@H]3CCN(c4cccnn4)C3)cc2)cn1 [Example 773, (3S)-N-[4-(1-tert-butyl-1H-pyrazol-4-yl)phenyl]-1-(pyridazin-3-yl)pyrrolidine-3-carboxamide]",7.07
12,"O=C(Nc1ccc(O[C@@H]2CCN(C(=O)c3ccccc3)C2)cc1)[C@H]1CCN(c2cccnn2)C1 [Example 774, (3S)—N-(4-{[(3R)-1-benzoylpyrrolidin-3-yl]oxy}phenyl)-1-(pyridazin-3-yl)pyrrolidine-3-carboxamide]",8.60
13,"O=C(Nc1ccc(O[C@@H]2CCN(C(=O)c3ccccc3F)C2)cc1)[C@H]1CCN(c2cccnn2)C1 [Example 775, (3S)-N-(4-{[(3R)-1-(2-fluorobenzoyl)pyrrolidin-3-yl]oxy}phenyl)-1-(pyridazin-3-yl)pyrrolidine-3-carboxamide]",8.67
14,"O=C(Nc1ccc(O[C@@H]2CCN(C(=O)c3cccc(F)c3)C2)cc1)[C@H]1CCN(c2cccnn2)C1 [Example 776, (3S)-N-(4-{[(3R)-1-(3-fluorobenzoyl)pyrrolidin-3-yl]oxy}phenyl)-1-(pyridazin-3-yl)pyrrolidine-3-carboxamide]",8.12
15,"O=C(Nc1ccc(O[C@@H]2CCN(C(=O)c3ccc(F)cc3)C2)cc1)[C@H]1CCN(c2cccnn2)C1 [Example 777, (3S)-N-(4-{[(3R)-1-(4-fluorobenzoyl)pyrrolidin-3-yl]oxy}phenyl)-1-(pyridazin-3-yl)pyrrolidine-3-carboxamide]",7.72
16,"O=C(Nc1ccc(O[C@@H]2CCN(C(=O)c3cc(F)cc(F)c3)C2)cc1)[C@H]1CCN(c2cccnn2)C1 [Example 778, (3S)-N-(4-{[(3R)-1-(3,5-difluorobenzoyl)pyrrolidin-3-yl]oxy}phenyl)-1-(pyridazin-3-yl)pyrrolidine-3-carboxamide]",7.71
17,"Cc1ccccc1C(=O)N1CC[C@@H](Oc2ccc(NC(=O)[C@H]3CCN(c4cccnn4)C3)cc2)C1 [Example 779, (3S)-N-(4-{[(3R)-1-(2-methylbenzoyl)pyrrolidin-3-yl]oxy}phenyl)-1-(pyridazin-3-yl)pyrrolidine-3-carboxamide]",8.83
18,"CC(C)(C)C(=O)N1CC[C@@H](Oc2ccc(NC(=O)[C@H]3CCN(c4cccnn4)C3)cc2)C1 [Example 780, (3S)-N-(4-{[(3R)-1-(2,2-dimethylpropanoyl)pyrrolidin-3-yl]oxy}phenyl)-1-(pyridazin-3-yl)pyrrolidine-3-carboxamide]",8.39
19,"O=C(Nc1ccc(O[C@@H]2CCN(C(=O)C3CCC(F)(F)CC3)C2)cc1)[C@H]1CCN(c2cccnn2)C1 [Example 781, (3S)-N-[4-({(3R)-1-[(4,4-difluorocyclohexyl)carbonyl]pyrrolidin-3-yl}oxy)phenyl]-1-(pyridazin-3-yl)pyrrolidine-3-carboxamide]",8.00
20,"O=C(Nc1ccc(O[C@@H]2CCN(C(=O)CCC(F)(F)F)C2)cc1)[C@H]1CCN(c2cccnn2)C1 [Example 782, (3S)-1-(pyridazin-3-yl)-N-(4-{[(3R)-1-(4,4,4-trifluorobutanoyl)pyrrolidin-3-yl]oxy}phenyl)pyrrolidine-3-carboxamide]",7.17
21,"O=C(Nc1ccc(O[C@@H]2CCN(C(=O)c3ccc(F)cc3F)C2)cc1)[C@H]1CCN(c2cccnn2)C1 [Example 783, (3S)-N-(4-{[(3R)-1-(2,4-difluorobenzoyl)pyrrolidin-3-yl]oxy}phenyl)-1-(pyridazin-3-yl)pyrrolidine-3-carboxamide]",8.19
22,"CCCc1nc(-c2ccc(NC(=O)C3CN(c4cccnn4)C3)cc2)no1 [Example 784, N-[4-(5-propyl-1,2,4-oxadiazol-3-yl)phenyl]-1-(pyridazin-3-yl)azetidine-3-carboxamide]",7.80
23,"O=C(Nc1ccc(C2CN(C(=O)c3ccccc3F)C2)cc1)[C@H]1CCN(c2cccnn2)C1 [Example 785, (3S)—N-{4-[1-(2-fluorobenzoyl)azetidin-3-yl]phenyl}-1-(pyridazin-3-yl)pyrrolidine-3-carboxamide]",8.93
24,"O=C(Nc1ccc(C2CN(C(=O)c3cccc(F)c3)C2)cc1)[C@H]1CCN(c2cccnn2)C1 [Example 786, (3S)-N-{4-[1-(3-fluorobenzoyl)azetidin-3-yl]phenyl}-1-(pyridazin-3-yl)pyrrolidine-3-carboxamide]",7.92

# Reference: US20130303509A1, “NAMPT INHIBITORS” (AbbVie Inc., priority 2012, published 2013)
